{"source": "ChEMBL document CHEMBL5584296", "about": "“Discovery of Novel Pyrimidine-Based Derivatives as Nav1.2 Inhibitors with Efficacy in Mouse Models of Epilepsy” (J Med Chem, 2024)", "note": "pIC50: −log10 of the molar value."}
{"target": "T1, Sodium channel protein type 2 subunit alpha (Homo sapiens, UniProt Q99250)", "experiment": "Inhibition of human Nav1.2 expressed in HEK293 cells assessed as test to control ratio at 1 uM measured after 5 mins by whole cell voltage clamp electrophysiological analysis", "assay_type": "cell-based", "details": "not given"}
{"smiles": "COc1cccc(-c2cc(N3CCCc4ccccc4C3)nc(NS(=O)(=O)c3ccc(F)cc3)n2)c1", "T/C": 0.95}
{"smiles": "COc1cccc(-c2cc(N3CCCc4cc(F)c(F)cc4C3)nc(N)n2)c1", "T/C": 0.65}
{"smiles": "COc1cccc(-c2nc(N)nc(N3CCCc4ccc(C)cc4C3)c2F)c1", "T/C": 0.19}
{"smiles": "COc1cccc(-c2cc(N3CCCc4c(cc(OC)cc4OC)C3)nc(N)n2)c1", "T/C": 0.53}
{"smiles": "Nc1nc(-c2cccc(OC(F)(F)F)c2)cc(N2CCCc3ccccc3C2)n1", "T/C": 0.81}
{"smiles": "CC(C)Oc1ccc(-c2cc(N3CCCc4ccccc4C3)nc(N)n2)cc1", "T/C": 0.87}
{"smiles": "Nc1nc(-c2cccc3ccccc23)cc(N2CCCc3ccccc3C2)n1", "T/C": 0.85}
{"smiles": "COc1cccc(-c2cc(N3CC4CC(C3)c3ccccc34)nc(NS(=O)(=O)c3ccc(F)cc3)n2)c1", "T/C": 0.56}
{"smiles": "Nc1nc(-c2ccc3c(c2)CCO3)cc(N2CCCc3ccccc3C2)n1", "T/C": 0.82}
{"smiles": "Nc1nc(-c2ccc(Oc3ccccc3)cc2)cc(N2CCCc3ccccc3C2)n1", "T/C": 0.79}
{"smiles": "COc1cccc(-c2cc(NCCc3ccc(OC)c(OC)c3)nc(N)n2)c1", "T/C": 0.35}
{"target": "T1, Sodium channel protein type 2 subunit alpha", "experiment": "Inhibition of human Nav1.2 expressed in HEK293 cells assessed as test to control ratio at 10 uM measured after 5 mins by whole cell voltage clamp electrophysiological analysis", "assay_type": "cell-based", "details": "not given"}
{"smiles": "COc1cccc(-c2cc(N3CCCc4ccc(C)cc4C3)nc(C#N)n2)c1", "T/C": 0.86}
{"smiles": "CN1C[C@H](CNC(=O)OCc2ccccc2)C[C@@H]2c3cccc4c3c(cn4C)C[C@H]21", "T/C": 0.01}
{"smiles": "COc1cccc(-c2cc(N3CCCc4ccccc4C3)nc(NS(=O)(=O)c3ccc(Cl)cc3)n2)c1", "T/C": 0.65}
{"smiles": "COc1cccc(-c2cc(N3CCCc4ccc(C)cc4C3)nc(S(C)(=O)=O)n2)c1", "T/C": 0.81}
{"smiles": "COc1cccc(-c2cc(N3Cc4ccccc4C3)nc(N)n2)c1", "T/C": 0.75}
{"smiles": "COc1cccc(-c2cc(N3CCCc4ccc(C)cc4C3)nc(SC)n2)c1", "T/C": 0.66}
{"smiles": "COc1cccc(-c2cc(N3CCCc4ccccc4C3)nc(NS(=O)(=O)c3ccc(F)cc3)n2)c1", "T/C": 0.36}
{"smiles": "COc1cccc(-c2cc(N3CCCc4cc(F)c(F)cc4C3)nc(N)n2)c1", "T/C": 0.43}
{"smiles": "COc1cccc(-c2nc(N)nc(N3CCCc4ccc(C)cc4C3)c2F)c1", "T/C": 0.01}
{"smiles": "COc1cccc(-c2cc(N3CCCc4c(cc(OC)cc4OC)C3)nc(N)n2)c1", "T/C": 0.14}
{"smiles": "COc1cccc(-c2cc(N3CCCc4ccc(C)cc4C3)nc(-c3ccccc3)n2)c1", "T/C": 0.91}
{"smiles": "COc1cccc(-c2cc(N3CCc4nc(C)sc4C3)nc(N)n2)c1", "T/C": 0.79}
{"smiles": "Nc1nc(-c2cccc(OC(F)(F)F)c2)cc(N2CCCc3ccccc3C2)n1", "T/C": 0.07}
{"smiles": "CC(C)Oc1ccc(-c2cc(N3CCCc4ccccc4C3)nc(N)n2)cc1", "T/C": 0.37}
{"smiles": "Nc1nc(-c2cccc3ccccc23)cc(N2CCCc3ccccc3C2)n1", "T/C": 0.08}
{"smiles": "COc1cccc(-c2cc(N3CC4CC(C3)c3ccccc34)nc(NS(=O)(=O)c3ccc(F)cc3)n2)c1", "T/C": 0.28}
{"smiles": "Nc1nc(-c2ccc3c(c2)CCO3)cc(N2CCCc3ccccc3C2)n1", "T/C": 0.07}
{"smiles": "Nc1nc(-c2ccc(Oc3ccccc3)cc2)cc(N2CCCc3ccccc3C2)n1", "T/C": 0.46}
{"smiles": "COc1cccc(-c2cc(NCCc3ccc(OC)c(OC)c3)nc(N)n2)c1", "T/C": 0.15}
{"target": "T1, Sodium channel protein type 2 subunit alpha", "experiment": "Inhibition of Nav1.2 (unknown origin) at 100 uM relative to control", "details": "not given", "units": {"inhibition": "%"}}
{"smiles": "O=C(CC(c1ccccc1)c1ccccc1)N1CCN(CCO)CC1", "inhibition": 59.1}
{"tested_on": "Mus musculus", "experiment": "Antiepileptic activity in 6 Hz(32 mA)-induced seizure male C57BL mouse model assessed as protection against seizure at 200 mg/kg, ip administered for 30 mins by epilepsy test", "assay_type": "functional", "details": "0.5 h", "units": {"Activity": "%"}}
{"smiles": "CCCC(CCC)C(=O)O", "note": "[VALPROIC ACID]", "Activity": 100}
{"target": "T1, Sodium channel protein type 2 subunit alpha", "experiment": "Inhibition of Nav1.2 (unknown origin)", "details": "not given"}
{"smiles": "Cc1cccc(C)c1OCCCNCc1cc(C(C)(C)C)c(O)c(C(C)(C)C)c1", "pIC50": 6.74}
{"smiles": "Nc1cnc(-c2cc(Cl)cc(Cl)c2Cl)c(N)n1", "note": "[ELPETRIGINE]", "pIC50": 5.22}
{"target": "T1, Sodium channel protein type 2 subunit alpha", "experiment": "Inhibition of human Nav1.2 expressed in HEK293 cells assessed as test to control ratio at 0.1 uM measured after 5 mins by whole cell voltage clamp electrophysiological analysis", "assay_type": "cell-based", "details": "not given"}
{"smiles": "COc1cccc(-c2cc(N3CCCc4ccccc4C3)nc(NS(=O)(=O)c3ccc(F)cc3)n2)c1", "T/C": 0.95}
{"smiles": "COc1cccc(-c2nc(N)nc(N3CCCc4ccc(C)cc4C3)c2F)c1", "T/C": 0.88}
{"smiles": "COc1cccc(-c2cc(NCCc3ccc(OC)c(OC)c3)nc(N)n2)c1", "T/C": 0.61}
{"tested_on": "Mus musculus", "experiment": "Antiepileptic activity in MES-induced seizure male ICR mouse model assessed as protection against tonic hind limb extension at 300 mg/kg, ip measured after 30 mins relative to control", "assay_type": "functional", "details": "0.5 h", "units": {"Activity": "%"}}
{"smiles": "CCCC(CCC)C(=O)O", "note": "[VALPROIC ACID]", "Activity": 100}
